Consider one compound from patent publication US20250049798A1, “WEE1 PROTEIN KINASE DEGRADATION AGENT AND USE THEREOF” (HANGZHOU GLUBIO PHARMACEUTICAL CO. LTD., priority 2021, published 2025).

Data set [1] in a line: Determination of kinetic solubility. In kind it is physicochemical. As to conditions: PBS, aqueous buffer, kinetic from dmso stock, shaking at 25° C. for 2 hours. The method, then:
An aliquot of 30 μL stock solution (10 mM) was placed in order into their proper 96-well rack. 970 μL of PBS was added into each vial of the cap-less solubility sample plate. The assay was performed in duplicate. In each vial, a stir stick was added and sealed with a molded PTFE/Silicone plug. […] Plugs were removed after 2 hours and the stir sticks were removed using a big magnet. Then the samples were transferred from the solubility sample plate into the filter plate. All the samples were filtered using the vacuum manifold. An aliquot of 5 μL filtrate was mixed with 5 μL DMSO and 490 μL of a mixture of H2O and acetonitrile (v:v, 1:1) containing internal standard. A certain proportion of ultrapure water was used to dilute according to the peak shape. The dilution factor was changed according to the solubility values and the LC-MS/MS signals.
An aliquot of 6 μL stock solution (10 mM in DMSO) was transferred from standard (STD) stock plate into a new plate, and then 194 μL of DMSO was added to get a STD working solution of 300 μM. Then 5 μL of 300 μM working solution was mixed with 5 μL of DMSO and 490 μL of a mixture of H2O and acetonitrile (v:v, 1:1) containing internal standard and the final STD concentration was 3 μM. The STD concentration were changed according to the LC-MS/MS signals.
The sample plate was put into the autosampler and the test compound concentration was determined by LC-MS/MS.

A short description of data set [2]: Pharmacokinetic study in mice (IV and PO). The conditions noted are these: male CD1 mice; for half-life: read-out: T½ (converted). In kind it is in vivo. The method, then:
Objective: the objective of this study was to determine the pharmacokinetics of test compound following intravenous (IV) and oral (PO) administration to male CD1 mice.
Materials: Male CD1 mouse (20-30 g, 6-8 weeks, Zhejiang Vital River Laboratory Animal Technology Co., Ltd.).
The CD1 mice were administered with the test article intravenously via tail vein at 2 mg/kg or orally at 10 mg/kg. The animals had free access to food and water. After dose administration, blood was collected from the dorsal metatarsal vein at 5 min (0.0833 h, IV only), 15 min (0.25 h), 30 min (0.5 h), 60 min (1 h), 2 h, 4 h, 6 h, 8 h and 24 h. Blood samples were placed in an anticoagulant tube with EDTA-K2, mixed adequately and centrifuged at 4° C., 4000 g for 5 minutes to get the plasma. The plasma samples were stored at −75±15° C. until analyzed by LC-MS/MS. The PK parameters were calculated using non-compartmental model by Phoenix WinNonlin 6.1 (Linear/log trapezoidal).

Data set [3] can be described thus: Permeability study in MDCKII cells (bidirectional A to B and B to A). In kind it is in vitro ADME, Canine. The conditions noted are these: dog, MDCK. Here is the method: MDCKII (Madin-Darby Canine Kidney cell line, wild type) cell was obtained from the Netherlands Cancer Institute, which was used for P-gp substrates or inhibitors screening and predicting the permeability of compounds with high efflux barriers such as duodenum, blood-brain barrier, hepatocyte nucleus and renal unit. The MDCKII cells with 10 to 22 passages were used for the permeability investigation.
MDCKII cells were cultured using Minimum Essential Media (MEM) at 37° C., 5% CO2 and 95% relative humidity. The cells were seeded in Transwell plate with 5.45×10^5 cells/cm^2. Then the cells were incubated in CO2 Incubator for 4-7 days for transport studies.
The complete medium was prepared by adding 10% FBS (fetal bovine serum) and 1% glutamax-1 to 500 ml MEM.
The dose concentrations of test compounds and control compounds were 1 μM. The bidirectional (A to B and B to A) permeability was evaluated. All incubations are performed in duplicate.
The regents were pre-incubated at 37±1° C. for 30 minutes. To determine the transport rate from apical to basolateral direction, 125 μL working solution (1 μM) was added to the Transwell insert (apical compartment), and 50 μL sample was immediately transferred from the apical compartment to a new 96-well plate as the initial donor sample (A-B) and mixed with 200 μL of acetonitrile or methanol containing IS. And 235 μL HBSS (10 mM HEPES, pH 7.4) was added to the receiver plate (basolateral compartment). To determine the transport rate from basolateral to apical direction, 285 μL working solution (1 μM) was added to the receiver plate (basolateral compartment), and 50 μL sample was immediately transferred from the basolateral compartment to a new 96-well plate as the initial donor sample (B-A) and mixed with 200 μL of acetonitrile or methanol containing IS. And 75 μL HBSS (10 mM HEPES, pH 7.4) was added to the Transwell insert (apical compartment). Then the plate was incubated at […] with 5% CO2 and 95% relative humidity for 120 minutes.
At the end of incubation, 50 μL samples from donor and receiver sides were transferred into a new 96-well plate. 200 μL of ice-cold acetonitrile or methanol containing appropriate internal standards (IS) was mixed with the samples. After vortex for 10 minutes, the samples are centrifuged at 3220 g for 40 minutes. An aliquot of 100 μL of the supernatant was mixed with appropriate volume of ultra-pure water and was analyzed by LC-MS/MS. All incubations are performed in duplicate.
The integrity of MDCKII cells were checked by Lucifer Yellow Rejection Assay after transport assay. The plate(s) were incubated with Lucifer Yellow solution at 37° C. for 30 minutes. The Lucifer Yellow fluorescence (to monitor monolayer integrity) was measured in a fluorescence plate reader at 480 nm excitation and 530 nm emission.
Test and reference compounds (metoprolol and digoxin) were semi-quantitatively analyzed, and the peak area ratio of the analyte and the internal standard was used to evaluate the concentration of the compounds.

Another data set deals with NCI-H1048 cells. Nature of the data set: NCI-H1048 cell proliferation assay (CTG assay). The class given is cell-based. The conditions noted are these: Homo sapiens, 120 hours, read-out: CTG cellular assay_H1048: IC50. In outline: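 NCI-H1048 small cell lung cancer cells (RPMI-1640, 10% FBS) were exposed to 10-point half-log compound dilutions from 10 μM to 0.316 nM for 120 h at 37° C., 5% CO2. Viability was read by CellTiter-Glo luminescence and normalized to DMSO as percent of control. EC50 and DC50 were fitted with a four-parameter logistic model.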

The target in another data set is HiBiT tagged Wee1 (Homo sapiens, UniProt P30291). Nature of the data set: Wee1 protein degradation assay (HiBiT assay). In kind it is cell-based. As to conditions: engineered HT-1080 cells, 20 hours.

Where two headings read alike, the source gives them in different places. A value given as a limit tells only on which side of the number the result lay.

Sequence of HiBiT tagged Wee1 (P30291 whole entry): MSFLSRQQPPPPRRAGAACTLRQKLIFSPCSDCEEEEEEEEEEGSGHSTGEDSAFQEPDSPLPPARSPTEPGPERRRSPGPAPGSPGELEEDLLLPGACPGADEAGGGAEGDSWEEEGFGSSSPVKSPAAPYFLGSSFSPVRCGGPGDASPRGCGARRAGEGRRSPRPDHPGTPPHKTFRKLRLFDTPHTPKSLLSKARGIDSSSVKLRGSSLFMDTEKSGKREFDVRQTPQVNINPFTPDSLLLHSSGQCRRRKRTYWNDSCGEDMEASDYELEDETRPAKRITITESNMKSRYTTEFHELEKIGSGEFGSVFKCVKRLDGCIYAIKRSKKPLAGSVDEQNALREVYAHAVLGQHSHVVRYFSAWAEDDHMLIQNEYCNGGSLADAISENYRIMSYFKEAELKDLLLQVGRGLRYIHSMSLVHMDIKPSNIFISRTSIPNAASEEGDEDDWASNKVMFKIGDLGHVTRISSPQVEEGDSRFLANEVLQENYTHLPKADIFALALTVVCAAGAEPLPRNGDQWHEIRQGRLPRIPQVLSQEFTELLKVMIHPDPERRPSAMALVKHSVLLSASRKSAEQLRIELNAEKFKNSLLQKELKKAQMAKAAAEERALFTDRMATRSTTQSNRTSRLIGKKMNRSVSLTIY

As for `C=CCn1c(=O)c2cnc(Nc3ccc(N4CCN(CC5CCN(c6ccc(NC7CCC(=O)NC7=O)cc6F)CC5)CC4)cc3)nc2n1-c1ccc2c(n1)[C@@](O)(CC)CC2` (mixture of isomers) [Compound 110], the solubility (kinetic) at 2 h in data set [1] (pH 3.0, read-out: Kinetic solubility (μM) pH 3.0) was determined as 233 µM. For the same compound, in data set [1] (pH 5.0, read-out: Kinetic solubility (μM) pH 5.0), the solubility (kinetic) at 2 h was determined as 132 µM. In data set [2] (PO (10 mg/kg) vs IV (2 mg/kg)), the F is 106%. In data set [2] (mouse, plasma, IV (2 mg/kg)), the area under the curve AUC(0-inf) was 10900 ng·h/mL, the clearance amounted to 3.24 mL/min/kg and the half-life is 182 min. For the same compound, in data set [2] (mouse, plasma, PO (10 mg/kg)), the AUC(0-inf) was 53200 ng·h/mL, the highest level (Cmax) was 4210 ng/mL and the half-life was 177 min. In addition, the efflux ratio at 120 min, 1 μM in data set [3] (pH 7.4) is 0.89. In addition, in data set [3] (pH 7.4, 120 minutes, apical to basolateral), the Papp A→B at 120 min, 1 μM came to 2.37 ×10⁻⁶ cm/s. In data set [3] (pH 7.4, 120 minutes, basolateral to apical), this compound displayed a Papp B→A at 120 min, 1 μM of 2.11 ×10⁻⁶ cm/s. Also, in the data set on NCI-H1048 cells, the IC50 was not above 25 nM. Besides, the DC50 at HiBiT tagged Wee1 was less than 100 nM. For the same compound, at HiBiT tagged Wee1 (maximum percentage of Wee1 degradation, read-out: HiBiT Wee1: Dmax), the Dmax was more than 75%.
